Data as given in US8859612B2, “Use of hesperidin or one of its derivatives for making a medicine for bone formation stimulation” (Institut National de la Recherche Agronomique (INRA), priority 2002, dated 2014).

Legend:
hPOB-tert cells [1] = assay: Alkaline phosphatase activity in hPOB-tert cells (Example 2); format: cell-based, human
Protocol: (§1) We have tested three concentrations of hesperetin in the hPOB culture medium seeded to confluence: 1, 10 and 50 μM. Furthermore, these media lacked osteoblast differentiation factors (Vitamin D3 and dexamethasone). The control contained 0.1% DMSO (hesperetin being dissolved in the DMSO). The cells were incubated in these media for 35 days. The alkaline phosphatase activity, a marker of osteoblast differentiation, was measured on a cell lysate by using a commercial kit (Sigma No 247). The cells had been harvested at 0, 4, 8 and 12 days of incubation. The calcium content of the cells, the mineralisation marker, was quantified on a cell lysate after 21 days of incubation in the different media, with the aid of a commercial kit (Sigma No587).

hPOB-tert cells [2] = assay: Accumulation of calcium in hPOB-tert cells (Example 2); format: cell-based, human; conditions: hesperetin 50 μM, 21 days of incubation, vs control cells (0.1% DMSO)
Protocol: as §1

[3] = tested on: oophorectomised rat (OVX) and sham-operated control rats (SH); assay: Uterine weight (Example 1); format: in vivo, Wistar rats; conditions: 3 months; for uterine weight: hesperidin 0.5% in diet
Excerpt: (§2) In order to study the possible impact of this molecule on bone tissue, 40 female 3 months old Wistar rats (266±2 g) were used. These animals were accustomed to a basic semi-synthetic diet for the 7 days preceding the start of the period of experimentation. At D0, 20 rats were sham-operated, the other 20 were oophorectomised. Distributed in groups of 10, they were fed on various diets for 3 months, at the end of which they were sacrificed. The last week before being killed, from D85 to D90, the rats were inspected and the urine was collected (over a period of 24 hours). Similarly, the body composition of the rats was measured. After being killed the plasma and the femurs were collected for different analyses [Femurs: resistance to rupture, densitometry; Plasma: osteocalcinemia (marker for osteoblast activity), hesperetin level: Urines: desoxypyridinoline (marker for bone resorption)]. Throughout the entire duration of the experimentation, the rats were weighed once a week. The daily quantity of food distributed to each animal was 20 g.
(§3) 10 T SH and 10 T OVX: sham-operated and oophorectomised rats receiving a standard control diet for 3 months
(§4) 10 Hp SH et 10 Hp OVX: sham-operated and oophorectomised rats receiving a standard control diet supplemented with hesperidin (0.5%) for 3 months
The uterine weight was evaluated in order to validate the castration.

[4] = tested on: oophorectomised rat (OVX) and sham-operated control rats (SH); assay: Femoral biomechanics (Example 1); format: in vivo, Wistar rats
Excerpt: as §2, §3, §4

[5] = tested on: oophorectomised rat (OVX) and sham-operated control rats (SH); assay: Femoral densitometry (Example 1); format: in vivo, Wistar rats; conditions: for Total femoral density (T-BMD): hesperidin 0.5% in diet, 3 months
Excerpt: as §2, §3, §4
The densities are expressed in g/cm^2.

[6] = tested on: oophorectomised rat (OVX) and sham-operated control rats (SH); assay: Urinary excretion of desoxypyridinoline, marker for bone resorption (Example 1); format: in vivo, Wistar rats
Excerpt: as §2, §3, §4

[7] = tested on: oophorectomised rat (OVX) and sham-operated control rats (SH); assay: Plasma levels of osteocalcin, marker for osteoblast activity (Example 1); format: in vivo, Wistar rats; conditions: Hp SH vs T SH, p<0.05 (FIG. 4)
Excerpt: as §2, §3, §4

[8] = Circulating levels of hesperetin (Example 1); format: in vivo, Wistar rats; conditions: OVX and SH rats receiving diet supplemented with hesperidin 0.5%, 3 months
Excerpt: as §2, §4

[9] = tested on: six months' old oophorectomised rat; assay: Uterine weight, six months' old rats (Example 3); format: in vivo, Wistar rats
Protocol: (§5) The experiments were performed on 48 six months' old female Wistar rats: 24 oophorectomised (OVX) and 24 sham-operated (SH).
(§6) After the surgical operation on D0, the animals were given seven days to accustom themselves to their surroundings. At the end of this period of adaptation, the rodents were distributed on the basis of weight parameters in 4 homogeneous groups and received daily for 72 days 22 g of the following diets: • group SH: 12 sham-operated rats fed with the control diet • group OVX: 12 oophorectomised rats which received the control diet • group SH Hp: 12 sham-operated rats fed with the hesperidin diet • group OVX Hp: 12 oophorectomised rats which received the hesperidin diet
When sacrificed (D90), the animals were anesthetised by an intra-peritoneal injection of chloral (Fluka: 8% solution; 0.4 ml/100 g live weight). Blood samples were collected from the abdominal aorta. The uterus was weighed.

[10] = tested on: six months' old oophorectomised rat; assay: Bone mineral density of the femur, six months' old rats (Example 3); format: in vivo, Wistar rats; conditions: six months' old OVX rats, consumption of hesperidin (FIG. 11)
Protocol: as §5, §6
The femurs were extracted and adjacent soft tissues were removed, then the femurs were stored in 80% ethanol for the determination of bone density.

[11] = tested on: six months' old oophorectomised rat; assay: Biomechanical properties of the femur, six months' old rats (Example 3); format: in vivo, Wistar rats; conditions: hesperidin diet (FIG. 14)
Protocol: as §5, §6
The mechanical properties of the femur of the individuals of the different groups of animals were analysed.

COc1ccc([C@@H]2CC(=O)c3c(O)cc(O)cc3O2)cc1O [hesperetin, (S)-2,3-dihydro-5,7-dihydroxy-2-(3-hydroxy-4-methoxyphenyl)-4H-1-benzopyran-4-one]
alkaline phosphatase activity (osteoblast differentiation) (hPOB-tert cells [1]; hesperetin 1 μM, vs untreated cells, no vitamin D3 or dexamethasone): lacks effect
alkaline phosphatase activity (osteoblast differentiation) (hPOB-tert cells [1]; hesperetin 10 μM, from the 4th day onwards, plateau on the 8th day): increase
alkaline phosphatase activity (osteoblast differentiation) (hPOB-tert cells [1]; hesperetin 50 μM, from the 4th day onwards, plateau on the 8th day): most efficacious
calcium deposition (calcium content of the cells) (hPOB-tert cells [2]): stimulate calcium deposition

COc1ccc([C@@H]2CC(=O)c3c(O)cc(O[C@@H]4O[C@H](CO[C@@H]5O[C@@H](C)[C@H](O)[C@@H](O)[C@H]5O)[C@@H](O)[C@H](O)[C@H]4O)cc3O2)cc1O [hesperidin, (S)-7-[[6-0-(6-deoxy-α-L-mannopyranosyl)-β-D-glucopyranosyl]oxy]-2,3-dihydro-5-hydroxy-2-(3-hydroxy-4-methoxyphenyl)-4H-1-benzopyran-4-one]
uterine weight ([3]; Hp OVX: oophorectomised rats, ** p<0.01 vs SH): 238.6 ± 2.23** mg
uterine weight ([3]; Hp SH: sham-operated rats): 659.4 ± 8.96 mg
uterotrophic effect ([3]; uterine weight not modified by consumption of hesperidin 0.5% in diet): lack a uterotrophic effect
Femoral resistance to rupture ([4]; Hp SH: sham-operated rats, hesperidin 0.5% in diet, 3 months): 106.3 ± 5.3 N
femoral resistance to rupture, effect in words ([4]; oophorectomised rats, diet supplemented with hesperidin): tendency to improve
Total femoral density (T-BMD) ([5]; Hp OVX: oophorectomised rats): 0.2445 g/cm^2
Total femoral density (T-BMD) ([5]; Hp SH: sham-operated rats): 0.2501 g/cm^2
diaphyseal femoral density, effect in words ([5]; both OVX and SH rats vs groups on standard diet, p<0.05): significantly improves
metaphyseal femoral density (M-BMD) ([5]; intact or oophorectomised rats on hesperidin diet vs standard diet (FIG. 2)): increase
metaphyseal femoral density (M-BMD), mineralisation ([5]; non-castrated animals, by comparison with T SH): improvement of the mineralisation
total femoral density, effect on demineralisation induced by oophorectomy ([5]; oophorectomised rats, consumption of hesperidin): completely prevents this demineralisation
total femoral density, effect in words ([5]; sham-operated (SH) rats, consumption of hesperidin): significantly improves
urinary excretion of DPD ([6]; Hp SH rats in comparison with T SH): significantly diminished
urinary excretion of desoxypyridinoline: increase of bone resorption induced by oophorectomy ([6]; OVX rats, consumption of hesperidin (FIG. 3)): prevented
plasma levels of osteocalcin (bone accretion) [7]: stimulates bone accretion
mean plasma level of aglycone (hesperetin) [8]: 12.53 ± 2.48 µM
uterine atrophy following ovarian ablation ([9]; OVX rats, consumption of hesperidin (FIG. 10)): not prevented
uterotrophic effect ([9]; six months' old rats, hesperidin diet (FIG. 10)): lacks a uterotrophic effect
demineralisation of the femur (total bone mineral density) [10]: prevented (at least partially)
biomechanical properties of the femur (femoral load at rupture) ([11]; OVX Hp: six months' old oophorectomised rats): preserve them
biomechanical properties of the femur (femoral load at rupture) ([11]; intact (sham-operated) six months' old rats): improve them
